Laboratory results published in paper PMC6650409, “Modeling the binding of diverse ligands within the Ah receptor ligand binding domain” (Scientific Reports, 2019).
Numbering of substitutions follows the chain as printed. Where two headings read alike, the source gives them in different places.

Tests used:
[1] = molecular target: T1, mAhR (Mus musculus, UniProt P30561); experiment: biochemical; assay type: binding
T1 construct: made in house; host or cells: in vitro, Promega TNT Quick coupled transcription/translation rabbit reticulocyte lysate
T1 sequence (P30561 10-848): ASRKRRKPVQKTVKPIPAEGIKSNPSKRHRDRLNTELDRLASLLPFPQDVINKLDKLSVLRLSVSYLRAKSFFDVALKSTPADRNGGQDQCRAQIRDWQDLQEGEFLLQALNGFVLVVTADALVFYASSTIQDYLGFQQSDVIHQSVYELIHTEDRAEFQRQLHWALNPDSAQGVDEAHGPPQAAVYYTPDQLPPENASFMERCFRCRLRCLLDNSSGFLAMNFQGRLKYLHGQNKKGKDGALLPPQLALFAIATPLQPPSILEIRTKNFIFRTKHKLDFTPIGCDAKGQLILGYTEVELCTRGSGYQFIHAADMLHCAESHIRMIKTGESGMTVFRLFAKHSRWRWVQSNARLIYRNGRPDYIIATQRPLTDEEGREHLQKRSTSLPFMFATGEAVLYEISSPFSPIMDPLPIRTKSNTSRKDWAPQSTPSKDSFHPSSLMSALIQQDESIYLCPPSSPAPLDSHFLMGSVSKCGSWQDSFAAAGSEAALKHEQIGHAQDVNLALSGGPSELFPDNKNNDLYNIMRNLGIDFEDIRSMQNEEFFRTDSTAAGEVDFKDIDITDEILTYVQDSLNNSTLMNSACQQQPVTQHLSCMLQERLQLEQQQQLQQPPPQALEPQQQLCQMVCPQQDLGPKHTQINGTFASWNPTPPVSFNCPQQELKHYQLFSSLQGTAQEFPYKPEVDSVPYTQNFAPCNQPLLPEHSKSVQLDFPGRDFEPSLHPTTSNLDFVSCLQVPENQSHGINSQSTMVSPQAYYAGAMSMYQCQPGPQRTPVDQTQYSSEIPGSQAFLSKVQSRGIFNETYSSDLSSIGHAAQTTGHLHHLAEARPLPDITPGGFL
Experimental: (§1) [^3H]TCDD specific binding to wild-type or mutant mAhRs synthesized in vitro using the Promega TNT Quick coupled transcription/translation rabbit reticulocyte lysate kit (Madison, WI) was carried out as previously described. [^3H]TCDD specific binding was determined by subtracting the amount of [^3H]TCDD bound to unprogrammed lysate (nonspecific binding) from the total amount of [^3H]TCDD binding to lysate containing in vitro expressed AhR. The amount of [^3H]TCDD specific binding remaining in the presence of the indicated competitor chemical was expressed as a percent of the total [^3H]TCDD specific binding. The relative binding affinity (IC50) of each chemical was determined from concentration-dependent competitive inhibition curves obtained using [^3H]TCDD and increasing concentrations of each test chemical and the mean IC50 value was determined using three-parameter non-linear regression.

[2] = molecular target: T2, M334A mutant AhR (Mus musculus, UniProt P30561, M334A); experiment: [3H]TCDD competitive ligand binding, M334A mutant AhR; conditions: for change of relative binding affinity versus wild-type AhR: M334A substitution, in words; for IC50: Table S6, AhR mutant M334A
T2 construct: made in house; host or cells: in vitro, Promega TNT Quick rabbit reticulocyte lysate
T2 sequence (P30561 10-848 M334A): T1 sequence (P30561 10-848) with M325A
Experimental: The mouse AhR (mAhR) and ARNT (mARNT) expression plasmids, mβAhR/pcDNA3 and mβArnt/pcDNA3, have been previously described. Point mutations of mβAhR/pcDNA3 were carried out using the QuikChange Lightning Mutagenesis Kit (Agilent Technologies) and all constructs were verified by sequencing.
as §1

[3] = molecular target: T3, mAhR (Mus musculus, UniProt P30561); experiment: biochemical; conditions: wild-type mAhR
T3 construct: made in house; host or cells: in vitro transcription/translation (rabbit reticulocyte lysate)
Experimental: Wild-type and mutant mAhRs and mARNT were synthesized in vitro in the presence of unlabeled L-methionine, the resulting mAhRs and mARNT translation mixtures and MEDGK (25 mM MOPS (3-(N-morpholino)propanesulfonic acid; pH 7.5), 1 mM EDTA, 1 mM dithiothreitol, 10% (v/v) glycerol, 150 mM KCl) were mixed in a 1:1:8 (v/v/v) ratio and incubated with DMSO (1% final concentration) or the indicated concentration of TCDD or test chemical for 2 hours at room temperature. An aliquot of each incubation was mixed with [^32P]-labeled double-stranded oligonucleotide containing the mouse AhR DNA binding site DRE3 (a dioxin responsive element from the upstream region of the murine Cyp1a1 gene[71]) and protein-DNA complexes resolved by gel retardation analysis as previously described in detail. Gels were visualized using a FLA9000 Fujifilm Imager and protein-DNA complexes quantitated with Fujifilm MultiGauge software. For potency measurements, reactions were incubated with increasing concentrations of the test chemical and the chemical concentration producing half maximal AhR:ARNT:DRE complex formation (EC50) determined.
T3 sequence (P53762 whole entry partner, one chain of several): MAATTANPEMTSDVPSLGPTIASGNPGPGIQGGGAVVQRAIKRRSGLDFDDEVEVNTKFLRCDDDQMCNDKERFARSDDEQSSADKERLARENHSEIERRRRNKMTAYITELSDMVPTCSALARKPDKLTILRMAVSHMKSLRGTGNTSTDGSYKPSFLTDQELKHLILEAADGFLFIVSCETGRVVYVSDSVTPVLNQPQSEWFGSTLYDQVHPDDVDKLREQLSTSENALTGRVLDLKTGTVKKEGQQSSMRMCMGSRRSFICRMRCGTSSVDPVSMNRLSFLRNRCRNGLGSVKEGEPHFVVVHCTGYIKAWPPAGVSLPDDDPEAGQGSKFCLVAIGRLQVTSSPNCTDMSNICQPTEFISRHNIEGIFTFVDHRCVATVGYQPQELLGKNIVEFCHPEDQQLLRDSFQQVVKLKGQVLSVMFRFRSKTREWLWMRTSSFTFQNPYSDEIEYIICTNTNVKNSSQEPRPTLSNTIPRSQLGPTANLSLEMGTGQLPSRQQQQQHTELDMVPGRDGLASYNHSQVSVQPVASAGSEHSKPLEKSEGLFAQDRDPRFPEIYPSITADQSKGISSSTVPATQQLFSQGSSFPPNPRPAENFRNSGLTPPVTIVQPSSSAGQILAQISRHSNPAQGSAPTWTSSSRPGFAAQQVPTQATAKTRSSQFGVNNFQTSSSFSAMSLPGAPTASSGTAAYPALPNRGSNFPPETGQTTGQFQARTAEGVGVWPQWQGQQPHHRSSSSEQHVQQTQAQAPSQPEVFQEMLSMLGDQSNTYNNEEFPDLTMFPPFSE

[4] = Table S1, wild-type mAhR, mean of nine independent reactions, read-out: AhR LB IC50
[5] = competition with [3H]TCDD, wild-type mAhR, values in text, read-out: relative AhR ligand binding affinity (IC50)
[6] = Table S1, read-out: AhR DNAB -LogEC50 (converted)
[7] = gel retardation, values in text, read-out: relative potency to stimulate AhR DNA binding in vitro (EC50)
[8] = Table S1, mean of nine independent reactions, read-out: AhR DNAB EC50

| Compound | IC50 [1, 4] [nM] | IC50 [1, 5] [nM] | change of relative binding affinity versus wild-type AhR [2] | IC50 [2] [nM] | EC50 [3, 6] [nM] | EC50 [3, 7] [nM] | EC50 [3, 8] [nM] | IC50 [1] [nM] | EC50 ([3]; AhR DNAB EC50, Table S1, mean of nine independent reactions) [nM] | EC50 ([3]; relative potency to stimulate AhR DNA binding in vitro (EC50), gel retardation, values in text) [nM] | IC50 ([1]; Table S1, wild-type mAhR, read-out: AhR LB -LogIC50 (converted)) [nM] |
| --- | --- | --- | --- | --- | --- | --- | --- | --- | --- | --- | --- |
| Cc1ccc2cc3c(ccc4ccccc43)c3c2c1CC3 [3MC, 3-methylcholanthrene] | 1.58 | 1.6 | decreased | 34.7 | 6.03 | – | – | – | – | – | – |
| O=c1cc(-c2ccccc2)oc2ccc3ccccc3c12 [BNF] | 7.24 | 7.2 | – | – | – | 138 | – | – | – | – | – |
| c1ccc2c(c1)cc1ccc3cccc4ccc2c1c34 [BaP, Benzo(a)pyrene] | – | 617 | – | – | – | 39 | 38.9 | – | – | – | – |
| c1ccc2c(c1)ccc1cc3c(ccc4ccccc43)cc12 [DBA, dibenz(a,h)anthracene] | – | 7.6 | no significant effect | 7.33 | 3.98 | – | 4.02 | – | – | – | – |
| O=Cc1c2[nH]c3ccccc3c2cc2[nH]c3ccccc3c12 [FICZ, 6-formylindolo[3,2-b]carbazole] | 1.02 | 1 | – | – | – | 4.25 | – | – | – | – | – |
| Clc1ccc(-c2cc(Cl)c(Cl)c(Cl)c2)cc1Cl [PCB126, 3,3′4,4′5-pentachlorobiphenyl] | 5.89 | 5.9 | significantly reduced | 74.1 | – | 6.5 | 6.51 | – | – | – | – |
| Clc1cc2c(cc1Cl)Oc1cc(Cl)c(Cl)cc1O2 [TCDD, 2,3,7,8-tetrachlorodibenzo-p-dioxin] | – | 1 | – | – | – | – | – | 1 | 7.53 | 7.5 | – |
| Clc1cc2oc3cc(Cl)c(Cl)cc3c2cc1Cl [TCDF, 2,3,7,8-tetrachlorodibenzofuran] | 20.1 | – | – | – | – | 4.5 | 4.55 | – | – | – | 20 |
